# From patent US20060035811A1, “Methods of treating dry eye disease with lantibiotics” (priority 2002, published 2006)
# Test system: New Zealand (albino) rabbits
# Test: Tear secretion in albino rabbits after topical instillation (Schirmer strips)
# Assay type: in vivo
# Settings: for Tear secretion % Mean (% of baseline) / Tear secretion (mm) Mean: 1×50 microliters, right eye
# Method: New Zealand (albino) rabbits were the experimental model used to test the action of duramycin. Four animals were involved for each formulation: Duramycin was used in a formulation at 0.5 mg/ml dissolved in saline (0.9% sodium chloride) at pH between 6 and 7 and was compared with 0.9% sodium chloride and with 0.9% sodium chloride at pH between 6 and 7 (vehicle). Animals were randomly allocated into 3 groups of 4 animals each by a computer controlled program.
# Aliquots (1×50 microliters) were administered using a micropipette into the right eyes while the left eyes remained untreated. Sampling was performed in the right eyes for a constant interval of 15 seconds before the instillation and at 15, 30, 60, 120, and 180 minutes after instillation. Tear secretion was collected and measured on treated eyes using Schimer strips.
# Tear secretion, measured as the tear migration onto Schirmer strips for 15 seconds, was expressed in millimeters (mm) and in percents (%) of baseline values. The % of baseline values was the mean of individual %. T max is the time when the maximum mean value is obtained and is expressed in minutes (min).
# Mean AUC0-180 min value (area under the curve from baseline to 180 min) is the mean of individual AUC0-180 min values calculated using the trapezoidal rule and is expressed in mm×min and in %×min.
# [1] = 15 min after instillation, 0.5 mg/ml
# [2] = 30 min after instillation, 0.5 mg/ml
# [3] = 60 min after instillation, 0.5 mg/ml
# [4] = 120 min after instillation, 0.5 mg/ml
# [5] = 180 min after instillation, 0.5 mg/ml
# [6] = baseline to 180 min, trapezoidal rule, mean of individual values, 0.5 mg/ml
substance,measurement,setting,value
duramycin,Tear secretion % Mean (% of baseline),"0 min (before instillation, baseline), 0.5 mg/ml",100.0%
same,Tear secretion (mm) Mean,"0 min (before instillation, baseline), 0.5 mg/ml, Schirmer strip 15 seconds",2.8 mm
same,"Increase of tear secretion compared with saline, based on AUC0-180 min in %",0.5 mg/ml vs saline treatment,3.56 times
same,"Increase of tear secretion compared with saline, based on AUC0-180 min in mm",0.5 mg/ml vs saline treatment,1.92 times
same,"Increase of tear secretion compared with saline, based on maximum value in %",0.5 mg/ml vs saline treatment,4.59 times
same,"Increase of tear secretion compared with saline, based on maximum value in mm",0.5 mg/ml vs saline treatment,2.47 times
same,Tear secretion % Mean (% of baseline),[1],329.2%
same,Tear secretion (mm) Mean,[1],6.0 mm
same,Tear secretion % Mean (% of baseline),[2],459.4%
same,Tear secretion (mm) Mean,[2],9.4 mm
same,Tear secretion % Mean (% of baseline),[3],260.4%
same,Tear secretion (mm) Mean,[3],4.8 mm
same,Tear secretion % Mean (% of baseline),[4],157.3%
same,Tear secretion (mm) Mean,[4],3.5 mm
same,Tear secretion % Mean (% of baseline),[5],245.8%
same,Tear secretion (mm) Mean,[5],4.9 mm
same,Tmax (time when the maximum mean tear secretion is obtained),"after instillation, 0.5 mg/ml",30 min
same,AUC 0-180 of tear secretion,[6],891.6 mm × min
same,AUC 0-180 of tear secretion (% of baseline),[6],44554.7 % × min
